Experimental data from ChEMBL document CHEMBL6127046, “Design, synthesis, and preclinical evaluation of 11C/18F-labeled inhibitors for RIPK1 PET imaging” (Eur J Med Chem, 2024).
Values belong to the compound of their own block, whether it stands above or below them.

Key:
L929 = experiment: Anti-necroptosis activity against TNFalpha/Z-VAD-FMK-induced mouse L929 cell necroptosis model assessed as cell viability incubated for 24 hrs by CCK8 assay; type: functional, cell-based; conditions: L929, 24 h
U-937 = experiment: Anti-necroptosis activity against TNFalpha/SM-164/Z-VAD-FMK-induced human U-937 cell necroptosis model assessed as cell viability incubated for 24 hrs by CCK8 assay; type: functional, cell-based; conditions: U-937, 24 h
HT-29 = experiment: Anti-necroptosis activity against TNFalpha/SM-164/Z-VAD-FMK-induced human HT-29 cell necroptosis model assessed as cell viability incubated for 24 hrs by CCK8 assay; type: functional, cell-based; conditions: HT-29, 24 h
[1] = Metabolic stability in mouse brain assessed as remaining compound measured at 30 mins by HPLC analysis; type: ADME, tissue-based; conditions: read-out: Stability
[2] = Drug uptake in mouse hippocampus measured upto 60 mins by PET imaging method; type: ADME; conditions: in vivo, 1 h
[3] = Drug metabolism in mouse brain measured after 10 to 12 mins by HPLC analysis; type: ADME, tissue-based; conditions: time 10-12 min
[4] = Drug metabolism in mouse blood measured after 10 to 12 mins by HPLC analysis; type: ADME, tissue-based; conditions: time 10-12 min
[5] = Drug uptake in mouse thalamus measured upto 60 mins by PET imaging method; type: ADME; conditions: in vivo, 1 h
[6] = Drug uptake in mouse brain in presence of 1-(7-fluoro-2,3-dihydrobenzo[f][1,4]oxazepin-4(5H)-yl)-2,2-dimethylbutan-1-one by autoradiography; type: ADME, tissue-based; conditions: in vivo
[7] = Drug uptake in mouse brain in presence of Nec-1s by autoradiography; type: ADME, tissue-based; conditions: in vivo
[8] = Drug metabolism in mouse plasma assessed as retention time; type: ADME, cell-free
[9] = Drug uptake in mouse striatum measured upto 60 mins by PET imaging method; type: ADME; conditions: in vivo, 1 h
[10] = Drug uptake in mouse brain assessed as maximum standardized uptake value measured upto 60 mins by PET imaging method; type: ADME, tissue-based; conditions: in vivo, 1 h
[11] = Metabolic stability in mouse plasma assessed as remaining compound measured at 5 mins by HPLC analysis; type: ADME, cell-free; conditions: read-out: Stability
[12] = Drug metabolism in mouse plasma measured at 11 mins; type: ADME, cell-free
[13] = Metabolic stability in mouse plasma assessed as remaining compound measured at 30 mins by HPLC analysis; type: ADME, cell-free; conditions: read-out: Stability
[14] = Metabolic stability in mouse plasma assessed as remaining compound measured at 10 mins by HPLC analysis; type: ADME, cell-free; conditions: read-out: Stability
[15] = Metabolic stability in mouse brain assessed as remaining compound measured at 5 mins by HPLC analysis; type: ADME, tissue-based; conditions: read-out: Stability
[16] = Lipophilicity, logD of compound at pH 7.4 by shake-flask method; type: physicochemical; conditions: buffer
[17] = target: T1, Receptor-interacting serine/threonine-protein kinase 1 (Homo sapiens, UniProt Q13546); experiment: Binding affinity to RIPK1 (unknown origin) by KINOMEscan method
T1 sequence (Q13546 whole entry): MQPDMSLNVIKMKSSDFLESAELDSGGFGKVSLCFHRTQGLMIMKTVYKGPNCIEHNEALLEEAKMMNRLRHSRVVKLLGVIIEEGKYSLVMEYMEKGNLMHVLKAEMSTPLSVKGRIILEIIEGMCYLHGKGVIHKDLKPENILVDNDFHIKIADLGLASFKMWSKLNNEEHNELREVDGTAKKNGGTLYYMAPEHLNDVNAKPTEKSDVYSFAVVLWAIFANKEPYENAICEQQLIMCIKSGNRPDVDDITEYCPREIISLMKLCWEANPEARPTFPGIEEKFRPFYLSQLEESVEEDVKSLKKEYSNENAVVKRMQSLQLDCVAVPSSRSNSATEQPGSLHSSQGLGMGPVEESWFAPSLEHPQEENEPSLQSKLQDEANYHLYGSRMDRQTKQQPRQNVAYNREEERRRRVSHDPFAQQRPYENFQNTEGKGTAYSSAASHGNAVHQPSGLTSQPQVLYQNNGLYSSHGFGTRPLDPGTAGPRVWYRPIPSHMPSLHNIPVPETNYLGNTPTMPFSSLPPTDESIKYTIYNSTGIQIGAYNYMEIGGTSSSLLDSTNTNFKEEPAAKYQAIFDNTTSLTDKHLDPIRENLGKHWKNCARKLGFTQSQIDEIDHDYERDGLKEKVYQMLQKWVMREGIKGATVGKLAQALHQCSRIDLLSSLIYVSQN

Compound: O=C(C1CCN(c2ncc(F)cn2)CC1)N1CCOc2ccc(O)cc2C1
EC50 (L929): > 10 µM

Compound: CC(C)C(=O)Nc1nc2cc(-c3ccc4c(c3)c(C(=O)NC(C)c3ccccc3)cn4C)ccn2n1 (stereo unspecified)
EC50 (U-937): 0.0124 µM
EC50 (HT-29): 0.0125 µM
EC50 (L929): 0.004 µM

remaining at 0.5 h [1]: 44%
Drug uptake [2]: Active
Drug metabolism [3]: Metabolite_Detected
Drug metabolism [4]: Metabolite_Detected
Drug uptake [5]: Active
Drug uptake [6]: Not Active
Drug uptake [7]: Not Active
Retention_time [8]: 2.8 min
Drug uptake [9]: Active
SUVmax [10]: 1.5
remaining at 5 min [11]: 72%
Drug metabolism [12]: Metabolite_Detected
remaining at 0.5 h [13]: 25%
remaining at 10 min [14]: 51%
remaining at 5 min [15]: 86%
Compound: CCC(C)(C)C(=O)N1CCOc2ccc([18F])cc2C1

Compound: O=C(C1CCN(c2ncc(Br)cn2)CC1)N1CCOc2ccccc2C1
EC50 (L929): > 10 µM

Compound: COc1ccc2c(c1)CN(C(=O)C1CCN(c3ncc(F)cn3)CC1)CCO2
EC50 (L929): 2.58 µM

SUVmax [10]: 0.8
Compound: [11CH3]Oc1cnc(N2CCC(C(=O)N3CCOc4ccc(F)cc4C3)CC2)nc1

Compound: COc1cnc(N2CCC(C(=O)N3CCOc4ccccc4C3)CC2)nc1
EC50 (L929): 4.23 µM

logD [16]: 2.2
Compound: O=C(C1CCN(c2ncc(F)cn2)CC1)N1CCOc2ccc(F)cc2C1
EC50 (U-937): 2.76 µM
EC50 (HT-29): 5.12 µM
EC50 (L929): 0.77 µM

Compound: O=C(C1CCN(c2ncc(F)cn2)CC1)N1CCOc2ccccc2C1
EC50 (L929): 0.83 µM

Compound: CCC(C)(C)C(=O)N1CCOc2ccc(O)cc2C1
EC50 (L929): > 10 µM

Compound: O=C(C1CCN(c2ncc(Br)cn2)CC1)N1CCOc2ccc(F)cc2C1
EC50 (L929): 2.32 µM

Compound: CCC(C)(C)C(=O)N1CCOc2ccc(OC)cc2C1
EC50 (L929): 8.96 µM

Compound: COc1nc(N2CCC(C(=O)N3CCOc4ccc(F)cc4C3)CC2)ncc1F
EC50 (L929): 6.57 µM

SUVmax [10]: 1.5
Compound: O=C(C1CCN(c2ncc([18F])cn2)CC1)N1CCOc2ccc(F)cc2C1

Compound: O=C(C1CCN(c2ncc(F)cn2)CC1)N1CCOc2ccc(Br)cc2C1
EC50 (L929): 6.93 µM

Compound: O=C(C1CCN(c2ncc(O)cn2)CC1)N1CCOc2ccc(F)cc2C1
EC50 (L929): > 10 µM

logD [16]: 1.8
Compound: COc1cnc(N2CCC(C(=O)N3CCOc4ccc(F)cc4C3)CC2)nc1
EC50 (U-937): 2.2 µM
EC50 (HT-29): 0.2 µM
EC50 (L929): 0.38 µM

Compound: O=C(C1CCN(c2ncc(Br)cn2)CC1)N1CCOc2ccc(Br)cc2C1
EC50 (L929): > 10 µM

Compound: COc1nc(N2CCC(C(=O)N3CCOc4ccc(Br)cc4C3)CC2)ncc1F
EC50 (L929): 5.21 µM

logD [16]: 3.1
Kd [17]: 0.018 µM
Compound: CCC(C)(C)C(=O)N1CCOc2ccc(F)cc2C1
EC50 (U-937): 0.0249 µM
EC50 (HT-29): 0.00804 µM
EC50 (L929): 0.02 µM
